Values of other authors as cited in paper PMC10363405 (Methods in molecular biology (Clifton, N.J.), 2022).

Molecular target: β-tubulin
Assay: fluorescence enhancement titration with crosslinked microtubules
Type: binding, Bos taurus

In the case of `CC(=O)OC1C(=O)C2(C)C(OC(=O)CCNC(=O)c3cc4cc(F)c(O)c(F)c4oc3=O)CC3OCC3(OC(C)=O)C2C(OC(=O)c2ccccc2)C2(O)CC(OC(=O)C(O)C(NC(=O)c3ccccc3)c3ccccc3)C(C)=C1C2(C)C` (stereo not drawn) [PB-β-Ala-Taxol], the Kd is listed as 63 ± 8 nM.
